According to US10519191B2, “Bile acid analogs as FXR/TGR5 agonists and methods of use thereof” (Enanta Pharmaceuticals, Inc., priority 2014, dated 2019):
Where two headings read alike, the source gives them in different places.

Molecular target: T1, human FXR (NR1H4) (Homo sapiens, UniProt Q96RI1)
T1 construct: host or cells: CHO (Chinese hamster ovary) reporter cells
T1 sequence (Q96RI1 1-486): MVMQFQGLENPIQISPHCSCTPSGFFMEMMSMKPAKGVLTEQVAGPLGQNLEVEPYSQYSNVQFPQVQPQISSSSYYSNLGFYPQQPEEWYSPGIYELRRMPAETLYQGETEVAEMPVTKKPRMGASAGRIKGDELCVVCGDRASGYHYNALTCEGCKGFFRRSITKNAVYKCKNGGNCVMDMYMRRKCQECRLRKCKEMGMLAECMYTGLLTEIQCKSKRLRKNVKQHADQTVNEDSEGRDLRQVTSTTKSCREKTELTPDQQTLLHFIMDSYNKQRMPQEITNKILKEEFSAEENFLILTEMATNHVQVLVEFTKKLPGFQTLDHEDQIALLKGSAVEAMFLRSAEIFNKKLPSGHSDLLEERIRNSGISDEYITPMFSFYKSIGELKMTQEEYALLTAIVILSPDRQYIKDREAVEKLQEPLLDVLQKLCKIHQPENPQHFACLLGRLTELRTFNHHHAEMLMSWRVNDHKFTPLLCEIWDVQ
Assay: Human FXR (NR1H4) Assay (Gal4 promoter driven luciferase reporter, CHO cells)
Assay type: cell-based
Excerpt: Assays Human FXR (NR1H4) Assay
Determination of a ligand mediated Gal4 promoter driven transactivation to quantify ligand binding mediated activation of FXR. FXR Reporter Assay kit purchased from Indigo Bioscience (Catalogue number: IB00601) to determine the potency and efficacy of compound developed by Enanta that can induce FXR activation. The principle application of this reporter assay system is to quantify functional activity of human FXR. The assay utilizes non-human mammalian cells, CHO (Chinese hamster ovary) cells engineered to express human NR1H4 protein (referred to as FXR). Reporter cells also incorporate the cDNA encoding beetle luciferase which catalyzes the substrates and yields photon emission. Luminescence intensity of the reaction is quantified using a plate-reading luminometer, Envision. Reporter Cells include the luciferase reporter gene functionally linked to an FXR responsive promoter. Thus, quantifying changes in luciferase expression in the treated reporter cells provides a sensitive surrogate measure of the changes in FXR activity. […] The assay is according to the manufacturer's instructions. In brief, the assay was performed in white, 96 well plates using final volume of 100 ul containing cells with different doses of compounds. Retrieve Reporter Cells from −80° C. storage. Perform a rapid thaw of the frozen cells by transferring a 10 ml volume of 37° C. cell recovery medium into the tube of frozen cells. Recap the tube of Reporter Cells and immediately place it in a 37° C. water bath for 5-10 minutes. Retrieve the tube of Reporter Cell Suspension from the water bath. Sanitize the outside surface of the tube with a 70% alcohol swab, and then transfer it into the cell culture hood. Dispense 90 μl of cell suspension into each well of the 96-well Assay Plate. Transfer the plate into 37° C. incubator, allowing the cells adherent to the bottom of the well. Dilute compounds in Dilution Plate (DP), and administrate to cells at Assay Plate (AP). DMSO content of the samples was kept at 0.2%. Cells were incubated for additional 22 hours before luciferase activities were measured. Thirty minutes before intending to quantify FXR activity, remove Detection Substrate and Detection Buffer from the refrigerator and place them in a low-light area so that they may equilibrate to room temperature. Remove the plate's lid and discard all media contents by ejecting it into an appropriate waste container. Gently tap the inverted plate onto a clean absorbent paper towel to remove residual droplets. Cells will remain tightly adhered to well bottoms. Add 100 μl of luciferase detection reagent to each well of the assay plate. Allow the assay plate to rest at room temperature for at least 5 minutes following the addition of LDR. Set the instrument (Envision) to perform a single 5 second “plate shake” prior to reading the first assay well. Read time may be 0.5 second (500 mSec) per well.

[1] = efficacy normalized to CDCA set as 100%

Structure (SMILES)	EC50	Efficacy (%) [1]	Efficacy (%)
CC(C)N(O)C(=O)CC[C@@H](C)[C@H]1CC[C@H]2[C@@H]3[C@H](O)C[C@@H]4C[C@H](O)CC[C@]4(C)[C@H]3CC[C@]12C [Example 2]	> 10 µM	13%	
C[C@H](CCC(=O)N(O)C1CCCCC1)[C@H]1CC[C@H]2[C@@H]3[C@H](O)C[C@@H]4C[C@H](O)CC[C@]4(C)[C@H]3CC[C@]12C [Example 3]	> 10 µM	2%	
CC[C@H]1[C@@H](O)[C@@H]2[C@H](CC[C@]3(C)[C@@H]([C@H](C)CCC(=O)N(O)Cc4ccccc4)CC[C@@H]23)[C@@]2(C)CC[C@@H](O)C[C@@H]12 [Example 4]	1 to 10 µM	270%	
CC[C@H]1[C@@H](O)[C@@H]2[C@H](CC[C@]3(C)[C@@H]([C@H](C)CCCc4cc(F)c(O)c(F)c4)CC[C@@H]23)[C@@]2(C)CC[C@@H](O)C[C@@H]12 [Example 9]	1 to 10 µM	271%	
CC[C@H]1[C@@H](O)[C@@H]2[C@H](CC[C@]3(C)[C@@H]([C@H](C)CCCS(=O)(=O)[O-])CC[C@@H]23)[C@@]2(C)CC[C@@H](O)C[C@@H]12.[Na+] [Example 10]	1 to 10 µM	4%	
CC[C@H]1[C@@H](O)[C@@H]2[C@H](CC[C@]3(C)[C@@H]([C@H](C)CCS(=O)(=O)[O-])CC[C@@H]23)[C@@]2(C)CC[C@@H](O)C[C@@H]12.[Na+] [Example 11]			1%
CC[C@H]1[C@@H](O)[C@@H]2[C@H](CC[C@]3(C)[C@@H]([C@H](C)CCS(=O)(=O)N(Cc4ccc(OC)cc4)Cc4ccc(OC)cc4)CC[C@@H]23)[C@@]2(C)CC[C@@H](O)C[C@@H]12 [Example 12]	1 to 10 µM	1%	
CC[C@H]1[C@@H](O)[C@@H]2[C@H](CC[C@]3(C)[C@@H]([C@H](C)CCS(N)(=O)=O)CC[C@@H]23)[C@@]2(C)CC[C@@H](O)C[C@@H]12 [Example 13]	1 to 10 µM	118%	
CC[C@H]1[C@@H](O)[C@@H]2[C@H](CC[C@]3(C)[C@@H]([C@H](C)CC=CCS(N)(=O)=O)CC[C@@H]23)[C@@]2(C)CC[C@@H](O)C[C@@H]12 [Example 14]	0.1 to 1 µM	167%	
CC[C@H]1[C@@H](O)[C@@H]2[C@H](CC[C@]3(C)[C@@H]([C@H](C)CCCCS(N)(=O)=O)CC[C@@H]23)[C@@]2(C)CC[C@@H](O)C[C@@H]12 [Example 15]	0.1 to 1 µM	195%	
CC[C@H]1[C@@H](O)[C@@H]2[C@H](CC[C@]3(C)[C@@H]([C@H](C)CCCCS(=O)(=O)N(C)Cc4ccccc4)CC[C@@H]23)[C@@]2(C)CC[C@@H](O)C[C@@H]12 [Example 16]	1 to 10 µM	97%	
CC[C@H]1[C@@H](O)[C@@H]2[C@H](CC[C@]3(C)[C@@H]([C@H](C)CC=CS(N)(=O)=O)CC[C@@H]23)[C@@]2(C)CC[C@@H](O)C[C@@H]12 [Example 17]	0.1 to 1 µM	147%	
CC[C@H]1[C@@H](O)[C@@H]2[C@H](CC[C@]3(C)[C@@H]([C@H](C)/C=C/S(=O)(=O)NCc4ccc(OC)cc4)CC[C@@H]23)[C@@]2(C)CC[C@@H](O)C[C@@H]12 [Example 18]	1 to 10 µM	16%	
CC[C@H]1[C@@H](O)[C@@H]2[C@H](CC[C@]3(C)[C@@H]([C@H](C)/C=C/S(N)(=O)=O)CC[C@@H]23)[C@@]2(C)CC[C@@H](O)C[C@@H]12 [Example 19]	1 to 10 µM	3%	
CC[C@H]1[C@@H](O)[C@@H]2[C@H](CC[C@]3(C)[C@@H]([C@H](C)CCS(=O)(=O)NCc4ccc(OC)cc4)CC[C@@H]23)[C@@]2(C)CC[C@@H](O)C[C@@H]12 [Example 20]	> 10 µM	60%	
CC[C@H]1[C@@H](O)[C@@H]2[C@H](CC[C@]3(C)[C@@H]([C@H](C)CCS(=O)(=O)NC(C)=O)CC[C@@H]23)[C@@]2(C)CC[C@@H](O)C[C@@H]12 [Example 21]	1 to 10 µM	74%	
CC[C@H]1[C@@H](O)[C@@H]2[C@H](CC[C@]3(C)[C@@H]([C@H](C)CCS(=O)(=O)NC(=O)c4ccccc4)CC[C@@H]23)[C@@]2(C)CC[C@@H](O)C[C@@H]12 [Example 22]	1 to 10 µM	249%	
CC[C@H]1[C@@H](O)[C@@H]2[C@H](CC[C@]3(C)[C@@H]([C@H](C)CCCS(N)(=O)=O)CC[C@@H]23)[C@@]2(C)CC[C@@H](O)C[C@@H]12 [Example 23]	1 to 10 µM	202%	
CC[C@H]1[C@@H](O)[C@@H]2[C@H](CC[C@]3(C)[C@@H]([C@H](C)CCOP(=O)(O)c4ccccc4)CC[C@@H]23)[C@@]2(C)CC[C@@H](O)C[C@@H]12 [Example 24]	1 to 10 µM	75%	
CC[C@H]1[C@@H](O)[C@@H]2[C@H](CC[C@]3(C)[C@@H]([C@H](C)CCCOP(=O)(Oc4ccccc4)c4ccccc4)CC[C@@H]23)[C@@]2(C)CC[C@@H](O)C[C@@H]12 (stereo partly drawn) [Example 26]	1 to 10 µM		129%
CCOP(=O)(CCC[C@@H](C)[C@H]1CC[C@H]2[C@@H]3[C@H](O)[C@H](CC)[C@@H]4C[C@H](O)CC[C@]4(C)[C@H]3CC[C@]12C)OCC [Example 27]	1 to 10 µM		246%
CCOP(=O)(CCC[C@@H](C)[C@H]1CC[C@H]2[C@@H]3[C@H](O)[C@H](CC)[C@@H]4C[C@H](O)CC[C@]4(C)[C@H]3CC[C@]12C)c1ccccc1 (stereo partly drawn) [Example 28]	0.1 to 1 µM		265%
CCOP(=O)(CC[C@@H](C)[C@H]1CC[C@H]2[C@@H]3[C@H](O)[C@H](CC)[C@@H]4C[C@H](O)CC[C@]4(C)[C@H]3CC[C@]12C)c1ccccc1 (stereo partly drawn) [Example 29]	1 to 10 µM		49. %
